Measurements reported in patent US20100093811A1 (priority 2007, published 2010).
Counter-ions that a name gives are not always drawn. Like-named read-outs stand apart in the source and are kept apart here.

Assays:
[1] = biological target: wild-type HIV-1 protease (Human immunodeficiency virus type 1 group M subtype B, UniProt P04585); test: Assay for inhibition of microbial expressed HIV protease; format: biochemical
Protocol: Assay for Inhibition of Microbial Expressed HIV Protease
Inhibition studies of the reaction of the protease (which was expressed in Eschericia coli) with a peptide substrate [Val-Ser-Gln-Asn-(betanapthyl)Ala-Pro-Ile-Val]. The inhibitor is first preincubated with the enzyme in assay buffer (50 mM sodium acetate, pH 5.5, 100 mM NaCl, and 0.1% BSA) for 30 minutes at room temperature. Substrate is added to 440 micromolar in a total volume of 80 microliters containing 5 picomolar HIV-1 protease, and the reaction is incubated for 1 hour at 30° C. The reaction is quenched by addition of 120 microliters of 10% phosphoric acid, and product formation is determined after separation of product and substrate on a Vydac C18 column connected to an Alliance high performance liquid chromatography system (Waters Corporation). The extent of inhibition of the reaction is determined from the peak area of the products.

[2] = tested on: acute HIV infection of T-lymphoid cells; test: Assay for inhibition of HIV replication (spread assay); format: cell-based, HIV-1; conditions: read-out: Spread - IC95
Protocol: • Assay for Inhibition of HIV Replication
Assays for the inhibition of acute HIV infection of T-lymphoid cells were conducted in accordance with Vacca, J. P. et al., Proc. Natl. Acad. Sci. USA 1994, 91: 4096.

[3] = wild-type HIV-1 protease expressed in E. coli, peptide substrate, pH 5.5, read-out: Enzyme Inhibition - IC50
[4] = Human immunodeficiency virus 1, T-lymphoid

SMILES: COC(=O)N[C@@H](Cc1ccccc1Cl)C(=O)N[C@H](CCC[C@@H](CO)N(CCC(C)C)S(=O)(=O)c1ccc(CO)cc1)C1CC1 [Example J14, 2-chloro-N-{(1R,5S)-1-cyclopropyl-6-hydroxy-5-[{[4-(hydroxymethyl)phenyl]sulfonyl}(3-methylbutyl)amino]hexyl}-Nα-(methoxycarbonyl)-L-phenylalaninamide]
- IC50 [1, 3]: 0.183 nM
- IC95 [2, 4]: 63 nM

SMILES: COC(=O)N[C@H](C(=O)N[C@@H](C)CCC[C@@H](CO)N(C(C)C)S(=O)(=O)c1ccc([C@H](C)O)cc1)C(c1ccccc1)c1ccccc1 [Example K4, N-{(1S,5S)-6-hydroxy-5-[({4-[(1S)-1-hydroxyethyl]phenyl}sulfonyl)(isopropyl)amino]-1-methylhexyl}-Nα-(methoxycarbonyl)-β-phenyl-L-phenylalaninamide]
- IC50 [1, 3]: 0.015 nM
- IC95 [2, 4]: 19 nM

SMILES: COC(=O)N[C@H](C(=O)N[C@H](CCC[C@@H](CO)N(C(C)C)S(=O)(=O)c1ccc(CO)cc1)C(F)(F)F)C(c1ccccc1)c1ccccc1 [Example J40, N-[(1R,5S)-6-hydroxy-5-[{[4-(hydroxymethyl)phenyl]sulfonyl}(isopropyl)amino]-1-(trifluoromethyl)hexyl]-Nα-(methoxycarbonyl)-β-phenyl-L-phenylalaninamide]
- IC50 [1, 3]: 0.015 nM
- IC95 [2, 4]: 34 nM

SMILES: COC(=O)N[C@H](C(=O)N[C@H](CCC[C@@H](CO)N(CCC(C)C)S(=O)(=O)c1ccc(N)cc1)C1CC1)C(c1ccccc1)c1ccccc1 [Example E1]
- IC50 [1]: 0.03 nM
- IC95 [2, 4]: 11 nM

SMILES: COC(=O)N[C@H](C(=O)N[C@@H](C)CCC[C@@H](CO)N(CC(C)C)S(=O)(=O)c1ccc(N)cc1)C(c1ccccc1)c1ccccc1 [Example D9, N-{(1S,5S)-5-[[(4-aminophenyl)sulfonyl](isobutyl)amino]-6-hydroxy-1-methylhexyl}-Nα-(methoxycarbonyl)-β-phenyl-L-phenylalaninamide]
- IC50 [1, 3]: 0.035 nM
- IC95 [2, 4]: 8 nM

SMILES: CN[C@H](C(=O)N[C@H](CCC[C@@H](CO)N(CC(C)C)S(=O)(=O)c1ccc(CO)cc1)C1CC1)C(c1ccccc1)c1ccccc1 [Example J25, N-{(1R,55)-1-cyclopropyl-6-hydroxy-5-[{[4-(hydroxymethyl)phenyl]sulfonyl}(isobutyl)amino]hexyl}-Nα-methyl-β-phenyl-L-phenylalaninamide]
- IC50 [1, 3]: 0.08 nM
- IC95 [2, 4]: 17 nM

SMILES: CCCN([C@H](CO)CCC[C@@H](NC(=O)[C@@H](NC(=O)OC)C(c1ccccc1)c1ccccc1)C1CC1)S(=O)(=O)c1ccc(N)cc1 [Example I7, N-{(1R,5S)-5-[[(4-aminophenyl)sulfonyl](propyl)amino]-1-cyclopropyl-6-hydroxyhexyl}-Nα-(methoxycarbonyl)-β-phenyl-L-phenylalaninamide]
- IC50 [1, 3]: 0.206 nM
- IC95 [2, 4]: 43 nM

SMILES: COC(=O)N[C@@H](Cc1ccccc1Br)C(=O)N[C@H](CCC[C@@H](CO)N(C(C)C)S(=O)(=O)c1ccc(CO)cc1)C1CC1 [Example J37, 2-bromo-N-{(1R,5S)-1-cyclopropyl-6-hydroxy-5-[{[4-(hydroxymethyl)phenyl]sulfonyl}(isopropyl)amino]hexyl}-Nβ-(methoxycarbonyl)-L-phenylalaninamide]
- IC50 [1, 3]: 0.595 nM
- IC95 [2, 4]: 37 nM

SMILES: COC(=O)N[C@H](C(=O)N[C@H](CCC[C@@H](CO)N(C)S(=O)(=O)c1ccc(N)cc1)C(F)(F)F)C(c1ccccc1)c1ccccc1 [Example H6, N-[(1R,5S)-5-[[(4-aminophenyl)sulfonyl](methyl)amino]-6-hydroxy-1-(trifluoromethyl)hexyl]-Nα-(methoxycarbonyl)-β-phenyl-L-phenylalaninamide]
- IC50 [1]: 1.01 nM
- IC95 [2, 4]: 138 nM

SMILES: COC(=O)N[C@H](C(=O)N[C@@H](C)CCC[C@@H](CO)N(C(C)C)S(=O)(=O)c1ccc(N)cc1)C(c1ccccc1)c1ccccc1 [Example F1, N-{(1S,5S)-5-[[(4-aminophenyl)sulfonyl](isopropyl)amino]-6-hydroxy-1-methylhexyl}-Nα-(methoxycarbonyl)-β-phenyl-L-phenylalaninamide]
- IC95 [2, 4]: 32 nM

SMILES: COC(=O)N[C@H](C(=O)NCCC(C)C[C@@H](CO)N(CCC(C)C)S(=O)(=O)c1ccc(C)cc1)C(c1ccccc1)c1ccccc1 (stereo partly drawn) [Example B2]
- IC50 [1, 3]: 0.52 nM
- IC95 ([2]; inhibition of HIV-1 replication, 10% FBS): 368 nM

SMILES: COC(=O)N[C@H](C(=O)N[C@H](CCC[C@@H](CO)N(CCC(C)C)S(=O)(=O)c1ccc(CO)cc1)C(F)(F)F)C(c1ccccc1)c1ccccc1 [Example J2, N-[(1R,55S)-6-hydroxy-5-[{[4-(hydroxymethyl)phenyl]sulfonyl}(3-methylbutyl)amino]-1-(trifluoromethyl)hexyl]-Nα-(methoxycarbonyl)-β-phenyl-L-phenylalaninamide]
- IC50 [1, 3]: 0.012 nM
- IC95 [2, 4]: 8 nM

SMILES: COC(=O)N[C@H](C(=O)N[C@H](C)CCC[C@@H](CO)N(CCC(C)C)S(=O)(=O)c1ccc(N)cc1)C(c1ccccc1)c1ccccc1 (single isomer, unassigned) [D1(S)]
- IC50 [1, 3]: 0.008 nM
- IC95 [2, 4]: 7 nM

SMILES: CN[C@H](C(=O)NC(C)(C)CCC[C@@H](CO)N(C(C)C)S(=O)(=O)c1ccc(N)cc1)C(c1ccccc1)c1ccccc1 [Example L9, N-{(5S)-5-[[(4-aminophenyl)sulfonyl](isopropyl)amino]-6-hydroxy-1,1-dimethylhexyl}-Nα-methyl-β-phenyl-L-phenylalaninamide hydrochloride]
- IC50 [1]: 0.1 nM
- IC95 [2, 4]: 26 nM

SMILES: CCN([C@H](CO)CCC[C@@H](NC(=O)[C@@H](NC(=O)OC)C(c1ccccc1)c1ccccc1)C1CC1)S(=O)(=O)c1ccc(N)cc1 [Example I10, N-{(1R,5S)-5-[[(4-aminophenyl)sulfonyl](ethyl)amino]-1-cyclopropyl-6-hydroxyhexyl}-Nα-(methoxycarbonyl)-β-phenyl-L-phenylalaninamide]
- IC50 [1, 3]: 0.733 nM
- IC95 [2, 4]: 105 nM

SMILES: CC[C@@H](CCC[C@@H](CO)N(CCC(C)C)S(=O)(=O)c1ccc(CO)cc1)NC(=O)[C@@H](NC)C(c1ccccc1)c1ccccc1 [Example J27, N-{(1S,5S)-1-ethyl-6-hydroxy-5-[{[4-(hydroxymethyl)phenyl]sulfonyl}(3-methylbutyl)amino]hexyl}-Nα-methyl-β-phenyl-L-phenylalaninamide]
- IC50 [1, 3]: 0.025 nM
- IC95 [2, 4]: 6 nM

SMILES: COC(=O)N[C@H](C(=O)N[C@H](CCC[C@@H](CO)N(C(C)C)S(=O)(=O)c1ccc(N)cc1)C(C)C)C(c1ccccc1)c1ccccc1 [Example F14, N-{(1R,5S)-5-[[(4-aminophenyl)sulfonyl](isopropyl)amino]-6-hydroxy-1-isopropylhexyl}-Nα-(methoxycarbonyl)-β-phenyl-L-phenylalaninamide]
- IC50 [1, 3]: 1.76 nM
- IC95 [2, 4]: 148 nM

SMILES: CCC[C@@H](CCC[C@@H](CO)N(CCC(C)C)S(=O)(=O)c1ccc(N)cc1)NC(=O)[C@@H](NC(=O)OC)C(c1ccccc1)c1ccccc1 [Example D6, N-{(1S,5S)-5-[[(4-aminophenyl)sulfonyl](3-methylbutyl)amino]-6-hydroxy-1-propylhexyl}-Nα-(methoxycarbonyl)-β-phenyl-L-phenylalaninamide]
- IC50 [1, 3]: 0.106 nM
- IC95 [2, 4]: 56 nM

SMILES: CC(C)CCN([C@H](CO)CCC[C@@H](NC(=O)[C@@H](N)C(c1ccc(F)cc1)c1ccc(F)cc1)C1CC1)S(=O)(=O)c1ccc(CO)cc1 [Example J17, N-{(1R,5S)-1-cyclopropyl-6-hydroxy-5-[{[4-(hydroxymethyl)phenyl]sulfonyl}(3-methylbutyl)amino]hexyl}-4-fluoro-β-(4-fluorophenyl)-L-phenylalaninamide hydrochloride]
- IC50 [1]: 0.01 nM
- IC95 [2, 4]: 6 nM

SMILES: CC[C@@H](CCC[C@@H](CO)N(CCC(C)C)S(=O)(=O)c1ccc(CO)cc1)NC(=O)[C@@H](NC(=O)OC)C(c1ccc(Cl)cc1)c1ccc(Cl)cc1 [Example J44, 4-chloro-β-(4-chlorophenyl)-N-{(1S,5S)-1-ethyl-6-hydroxy-5-[{[4-(hydroxymethyl)phenyl]sulfonyl}(3-methylbutyl)amino]hexyl}-Nα-(metboxycarbonyl)-L-phenylalaninamide]
- IC50 [1, 3]: 0.081 nM
- IC95 [2, 4]: 126 nM

SMILES: COC(=O)N[C@@H](Cc1ccccc1Cl)C(=O)N[C@@H](C)CCC[C@@H](CO)N(C)S(=O)(=O)c1ccc(CO)cc1 [Example G8, 2-chloro-N-{(1S,5S)-6-hydroxy-5-[{[4-(hydroxymethyl)phenyl]sulfonyl}(methyl)amino]-1-methylhexyl}-Nα-(methoxycarbonyl)-L-phenylalaninamide]
- IC50 [1, 3]: 3.2 nM
- IC95 [2, 4]: 191 nM

SMILES: CCCN([C@H](CO)CCC[C@H](C)NC(=O)[C@@H](NC(=O)OC)C(c1cccc(F)c1)c1cccc(F)c1)S(=O)(=O)c1ccc(N)cc1 [Example F17, N-{(1S,5S)-5-[[(4-aminophenyl)sulfonyl](propyl)amino]-6-hydroxy-1-methylhexyl}-3-fluoro-β-(3-fluorophenyl)-Nα-(methoxycarbonyl)-L-phenylalaninamide]
- IC50 [1, 3]: 0.01 nM
- IC95 [2, 4]: 18 nM

SMILES: COC(=O)N[C@H](C(=O)N[C@H](CCC[C@@H](CO)N(CCC(C)C)S(=O)(=O)c1ccc(CO)cc1)C(C)C)C(c1ccccc1)c1ccccc1 [Example J9, N-{(1R,5S)-6-hydroxy-5-[{[4-(hydroxymethyl)phenyl]sulfonyl}(3-methylbutyl)amino]-1-isopropylhexyl}-Nα-(methoxycarbonyl)-β-phenyl-L-phenylalaninamide]
- IC50 [1, 3]: 0.069 nM
- IC95 [2, 4]: 23 nM
